Measurements: ChEMBL document CHEMBL1201862, “PubChem BioAssay data set” (2004)
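Protocol summary: plate cells (96-well), add compound at 5 concentrations, incubate 48 h, interpolate endpoints linearly. Abbreviation: GI50, concentration required for 50% inhibition of growth.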 Calls of active or inactive are those of the source. No stated cut-off is given here; in the data, active = GI50 up to about 1.1 µM and inactive = higher.

Tests used:
Experiment in all cases: NCI tumour cell line growth inhibition, 48 h
A498 = system: A498
A549 = system: A549
CAKI-1 = system: CAKI-1
COLO 205 = system: COLO 205
EKVX = system: EKVX
HCT-116 = system: HCT-116
HOP-92 = system: HOP-92
HT-29 = system: HT-29
KM12 = system: KM12
M14 = system: M14
MDA-MB-231 = system: MDA-MB-231
MOLT-4 = system: MOLT-4
NCI/ADR-RES = system: NCI/ADR-RES
OVCAR-8 = system: OVCAR-8
SK-MEL-2 = system: SK-MEL-2
SN12C = system: SN12C
SNB-19 = system: SNB-19
SR = system: SR
TK-10 = system: TK-10
UO-31 = system: UO-31

Measured: GI50

CN1CCc2cc(N)cc3c2C1Cc1ccc2c(c1-3)OCO2 (stereo not given)
inactive: A498 49.9 µM | A549 37.2 µM | CAKI-1 41.5 µM | COLO 205 30.1 µM | EKVX 50.9 µM | HCT-116 27.7 µM | HOP-92 17.7 µM | HT-29 30.7 µM | KM12 13.5 µM | M14 30.8 µM | MDA-MB-231 49.2 µM | MOLT-4 1.46 µM | NCI/ADR-RES 24.3 µM | OVCAR-8 21.6 µM | SK-MEL-2 36.1 µM | SN12C 26.9 µM | SNB-19 61.8 µM | SR 11 µM | TK-10 45.8 µM | UO-31 35.2 µM

CC(=O)C1=C(C)N(c2ccc(C)cc2)C2(O)C=CC(O)=C3C(=O)c4ccccc4C(=O)C312 (stereo not given)
inactive: A498 12.9 µM | A549 18.6 µM | CAKI-1 13.5 µM | COLO 205 5.05 µM | EKVX 19.3 µM | HCT-116 5.52 µM | HOP-92 55.1 µM | HT-29 3.89 µM | KM12 7.41 µM | M14 18.6 µM | MDA-MB-231 20.7 µM | MOLT-4 3.05 µM | NCI/ADR-RES 3.78 µM | OVCAR-8 16.1 µM | SK-MEL-2 7.36 µM | SN12C 13.6 µM | SNB-19 22.6 µM | SR 36.9 µM | TK-10 23.4 µM | UO-31 14.1 µM

COc1ccc2[nH]c3nnc(N)c-3nc2c1
inactive: A498 9.79 µM | A549 4.14 µM | CAKI-1 5.66 µM | COLO 205 3.62 µM | EKVX 4.26 µM | HCT-116 4.04 µM | HOP-92 10.4 µM | HT-29 5.58 µM | KM12 5.68 µM | M14 12.3 µM | MDA-MB-231 18.9 µM | MOLT-4 5.73 µM | NCI/ADR-RES 7.01 µM | OVCAR-8 5.62 µM | SK-MEL-2 5.28 µM | SN12C 18.4 µM | SNB-19 16.5 µM | SR 4.1 µM | TK-10 11.3 µM | UO-31 9.73 µM

C=C(C)/C=C/C(O)[C@](C)(O)[C@H]1[C@H](O)C[C@@]2(C)[C@@H]3CCc4c(cc(OC5OC(CO)C(O)C(O)C5O)c(O)c4C)C3(C)C(=O)C[C@]12C (stereo not given in full)
inactive: A498 > 100 µM | A549 > 100 µM | CAKI-1 > 100 µM | COLO 205 > 100 µM | EKVX > 100 µM | HCT-116 > 100 µM | HOP-92 > 100 µM | HT-29 > 100 µM | KM12 > 100 µM | M14 > 100 µM | MDA-MB-231 > 100 µM | MOLT-4 > 100 µM | NCI/ADR-RES > 100 µM | OVCAR-8 > 100 µM | SK-MEL-2 > 100 µM | SN12C > 100 µM | SNB-19 > 100 µM | SR > 100 µM | TK-10 > 100 µM | UO-31 > 100 µM

Nc1ncn(C2OC(COP(=O)(O)O)C(O)C2O)c(=O)n1 (stereo not given)
inactive: A498 > 100 µM | A549 45.9 µM | CAKI-1 > 71.9 µM | COLO 205 > 100 µM | EKVX > 58.2 µM | HCT-116 75.9 µM | HOP-92 > 100 µM | HT-29 > 100 µM | KM12 > 100 µM | M14 > 100 µM | MDA-MB-231 > 100 µM | MOLT-4 2.39 µM | NCI/ADR-RES > 100 µM | OVCAR-8 40.7 µM | SK-MEL-2 > 100 µM | SN12C 63.5 µM | SNB-19 > 100 µM | SR > 91.6 µM | TK-10 > 100 µM | UO-31 > 91.2 µM
